CON=C(C(C)=NN=Cc1ccccc1C(=NOC)C(=O)OC)c1ccc(Cl)cc1
melting point: 118 to 119 °C
